US10308639B2, “Phosphatidylinositol 3-kinase inhibitors” (Gilead Sciences, Inc., priority 2014, dated 2019)
Read-outs that look alike come from different tables or passages of the source.

Key:
Type in all cases: biochemical
PI3Kδ = target: T1, PI3Kδ (Homo sapiens, UniProt O00329); assay: TR-FRET enzymatic activity assay, PI3Kδ
T1 construct: made in house

PI3Kβ = target: T2, PI3Kβ (Homo sapiens, UniProt P42338); assay: TR-FRET enzymatic activity assay, PI3Kβ
T2 construct: made in house

PI3Kγ = target: T3, PI3Kγ (Homo sapiens, UniProt P48736); assay: TR-FRET enzymatic activity assay, PI3Kγ; conditions: read-out: PI3Kγ IC50
T3 construct: made in house
T3 sequence (P48736 whole entry): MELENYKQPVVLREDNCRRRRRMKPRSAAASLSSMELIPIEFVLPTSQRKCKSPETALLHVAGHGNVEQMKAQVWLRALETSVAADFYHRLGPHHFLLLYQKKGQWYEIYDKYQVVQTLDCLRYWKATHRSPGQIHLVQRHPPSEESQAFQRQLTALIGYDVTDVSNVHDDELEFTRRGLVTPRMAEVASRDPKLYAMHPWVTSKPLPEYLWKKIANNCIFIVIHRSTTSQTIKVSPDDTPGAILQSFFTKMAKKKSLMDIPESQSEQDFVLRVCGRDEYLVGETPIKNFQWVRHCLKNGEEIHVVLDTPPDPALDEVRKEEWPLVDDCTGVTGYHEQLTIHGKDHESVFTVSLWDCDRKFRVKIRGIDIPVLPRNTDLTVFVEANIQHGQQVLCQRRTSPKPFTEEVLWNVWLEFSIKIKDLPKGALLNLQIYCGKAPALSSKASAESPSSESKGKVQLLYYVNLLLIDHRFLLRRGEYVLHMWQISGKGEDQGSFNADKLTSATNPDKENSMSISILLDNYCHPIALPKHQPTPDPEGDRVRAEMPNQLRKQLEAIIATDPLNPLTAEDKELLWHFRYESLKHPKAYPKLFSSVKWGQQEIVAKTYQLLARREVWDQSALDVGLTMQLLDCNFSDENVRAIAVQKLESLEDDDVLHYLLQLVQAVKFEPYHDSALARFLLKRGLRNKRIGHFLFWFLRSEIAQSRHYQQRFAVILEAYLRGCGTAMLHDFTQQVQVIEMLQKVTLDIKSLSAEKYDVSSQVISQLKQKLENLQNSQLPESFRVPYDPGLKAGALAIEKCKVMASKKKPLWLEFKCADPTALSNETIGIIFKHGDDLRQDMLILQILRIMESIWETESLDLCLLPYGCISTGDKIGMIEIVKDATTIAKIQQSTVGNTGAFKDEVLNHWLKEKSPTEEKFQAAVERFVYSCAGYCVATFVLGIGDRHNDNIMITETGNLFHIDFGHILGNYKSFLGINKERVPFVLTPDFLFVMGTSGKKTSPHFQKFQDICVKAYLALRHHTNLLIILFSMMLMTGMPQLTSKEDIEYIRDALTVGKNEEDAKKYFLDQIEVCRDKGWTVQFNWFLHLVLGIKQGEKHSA
In short: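 Read-out is TR-FRET. The assay scores enzymatic activity of the individual PI3K isoforms in the presence of compound.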

[1] = Table 2, TR-FRET, 2x Km ATP, 30 minutes at 25° C.

T1 sequence (O00329 whole entry): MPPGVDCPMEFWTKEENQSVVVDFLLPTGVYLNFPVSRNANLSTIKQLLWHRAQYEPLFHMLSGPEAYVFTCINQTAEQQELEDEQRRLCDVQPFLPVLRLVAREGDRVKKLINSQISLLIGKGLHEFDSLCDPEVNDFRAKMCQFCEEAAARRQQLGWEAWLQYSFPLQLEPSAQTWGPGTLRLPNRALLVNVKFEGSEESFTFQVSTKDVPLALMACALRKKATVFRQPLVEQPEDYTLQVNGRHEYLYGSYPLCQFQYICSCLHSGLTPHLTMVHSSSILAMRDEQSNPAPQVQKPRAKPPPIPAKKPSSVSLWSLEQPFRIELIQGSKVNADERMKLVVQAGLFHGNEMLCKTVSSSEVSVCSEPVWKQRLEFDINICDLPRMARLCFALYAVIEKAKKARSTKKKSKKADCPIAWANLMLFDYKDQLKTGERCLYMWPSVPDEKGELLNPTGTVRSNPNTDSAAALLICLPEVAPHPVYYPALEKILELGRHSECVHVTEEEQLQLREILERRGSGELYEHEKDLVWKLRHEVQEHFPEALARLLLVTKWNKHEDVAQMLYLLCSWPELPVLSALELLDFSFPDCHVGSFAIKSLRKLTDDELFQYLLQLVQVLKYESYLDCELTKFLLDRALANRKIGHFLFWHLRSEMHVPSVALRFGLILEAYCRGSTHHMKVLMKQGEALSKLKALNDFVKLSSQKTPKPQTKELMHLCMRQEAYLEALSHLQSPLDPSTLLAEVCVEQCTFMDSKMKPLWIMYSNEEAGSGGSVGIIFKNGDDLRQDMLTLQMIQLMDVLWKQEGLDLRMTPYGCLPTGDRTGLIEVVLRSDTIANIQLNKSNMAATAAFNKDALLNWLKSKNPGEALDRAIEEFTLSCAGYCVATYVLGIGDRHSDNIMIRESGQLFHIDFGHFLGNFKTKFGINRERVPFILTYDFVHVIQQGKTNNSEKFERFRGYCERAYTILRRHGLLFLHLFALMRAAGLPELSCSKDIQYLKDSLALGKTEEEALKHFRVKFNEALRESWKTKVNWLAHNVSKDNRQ
T1 sequence (P27986 whole entry partner): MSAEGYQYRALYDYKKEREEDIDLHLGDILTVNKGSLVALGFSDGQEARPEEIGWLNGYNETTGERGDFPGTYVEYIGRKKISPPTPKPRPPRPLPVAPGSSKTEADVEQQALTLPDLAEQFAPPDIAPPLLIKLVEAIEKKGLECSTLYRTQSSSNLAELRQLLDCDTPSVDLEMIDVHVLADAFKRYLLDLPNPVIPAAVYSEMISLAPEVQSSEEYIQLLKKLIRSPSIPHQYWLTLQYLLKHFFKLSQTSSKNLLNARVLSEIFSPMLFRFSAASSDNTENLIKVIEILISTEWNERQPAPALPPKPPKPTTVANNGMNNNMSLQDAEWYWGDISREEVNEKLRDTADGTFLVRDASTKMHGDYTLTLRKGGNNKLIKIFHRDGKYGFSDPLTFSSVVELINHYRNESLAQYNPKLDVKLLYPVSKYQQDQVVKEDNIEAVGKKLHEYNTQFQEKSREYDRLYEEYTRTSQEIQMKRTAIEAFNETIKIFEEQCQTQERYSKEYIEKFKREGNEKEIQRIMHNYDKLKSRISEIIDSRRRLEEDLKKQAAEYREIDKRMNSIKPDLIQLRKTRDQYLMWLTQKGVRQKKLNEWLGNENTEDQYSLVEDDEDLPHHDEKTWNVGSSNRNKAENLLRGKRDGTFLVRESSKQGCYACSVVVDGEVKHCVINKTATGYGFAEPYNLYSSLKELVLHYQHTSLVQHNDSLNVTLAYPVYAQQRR
T2 sequence (P42338 whole entry): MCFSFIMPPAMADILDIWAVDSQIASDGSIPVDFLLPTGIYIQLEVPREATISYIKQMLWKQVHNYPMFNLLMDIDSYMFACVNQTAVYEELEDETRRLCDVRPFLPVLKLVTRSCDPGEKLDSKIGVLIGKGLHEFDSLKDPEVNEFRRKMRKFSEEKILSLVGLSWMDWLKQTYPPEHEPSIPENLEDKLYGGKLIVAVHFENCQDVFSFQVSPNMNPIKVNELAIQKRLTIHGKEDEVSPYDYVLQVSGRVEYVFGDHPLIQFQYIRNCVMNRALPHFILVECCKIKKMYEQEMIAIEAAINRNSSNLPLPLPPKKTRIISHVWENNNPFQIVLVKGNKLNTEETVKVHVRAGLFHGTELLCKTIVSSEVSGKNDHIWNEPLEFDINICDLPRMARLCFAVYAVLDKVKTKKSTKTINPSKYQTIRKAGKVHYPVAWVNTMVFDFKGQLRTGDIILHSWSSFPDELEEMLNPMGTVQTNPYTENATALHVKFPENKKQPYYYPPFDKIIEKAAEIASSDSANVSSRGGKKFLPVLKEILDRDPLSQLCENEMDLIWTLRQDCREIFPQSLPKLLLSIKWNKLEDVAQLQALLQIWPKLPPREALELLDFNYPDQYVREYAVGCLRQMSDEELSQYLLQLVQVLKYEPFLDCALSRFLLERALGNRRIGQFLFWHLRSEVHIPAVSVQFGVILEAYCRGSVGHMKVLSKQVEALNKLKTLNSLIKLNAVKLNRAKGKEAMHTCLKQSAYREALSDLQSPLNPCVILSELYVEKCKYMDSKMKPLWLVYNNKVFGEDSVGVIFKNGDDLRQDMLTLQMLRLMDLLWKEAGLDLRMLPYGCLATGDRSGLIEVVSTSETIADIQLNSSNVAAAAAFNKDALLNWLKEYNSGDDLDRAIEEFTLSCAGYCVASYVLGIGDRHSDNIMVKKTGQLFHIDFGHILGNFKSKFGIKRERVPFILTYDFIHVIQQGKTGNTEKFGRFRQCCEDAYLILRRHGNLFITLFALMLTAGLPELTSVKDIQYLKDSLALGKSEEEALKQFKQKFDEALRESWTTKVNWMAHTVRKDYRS
T2 sequence (P27986 whole entry partner): as the sequence (P27986 whole entry partner) above

Compound | IC50 (PI3Kδ; [1]) | IC50 (PI3Kβ; [1]) | IC50 (PI3Kγ; [1]) | IC50 (PI3Kγ) | IC50 (PI3Kδ; Table 2a, same assay) | IC50 (PI3Kβ; Table 2a, same assay) | IC50 (PI3Kγ; Table 2a, same assay)
CC[C@H](Nc1ncnc2scnc12)c1nc2cccc(C#N)c2c(=O)n1-c1cn[nH]c1 [Compound 103, (S)-4-oxo-3-(1H-pyrazol-4-yl)-2-(1-(thiazolo[5,4-d]pyrimidin-7-ylamino)propyl)-3,4-dihydroquinazoline-5-carbonitrile] | 100 nM | 620 nM | 8700 nM |  |  |  | 
C[C@H](Nc1ncnc2scnc12)c1nc2cccc(Cl)c2c(=O)n1-c1n[nH]cc1Br [Compound 104, (S)-3-(4-bromo-1H-pyrazol-3-yl)-5-chloro-2-(1-(thiazolo[5,4-d]pyrimidin-7-ylamino)ethyl)quinazolin-4(3H)-one] | 2 nM | 61 nM | 500 nM |  |  |  | 
N#Cc1c(N)nc(N)nc1N[C@@H](c1ccccc1)c1nc2cccc(Cl)c2c(=O)n1-c1cc[nH]n1 [Compound 105, (S)-2,4-diamino-6-(((5-chloro-4-oxo-3-(1H-pyrazol-3-yl)-3,4-dihydroquinazolin-2-yl)(phenyl)methyl)amino)pyrimidine-5-carbonitrile] | 3 nM | 5 nM | 680 nM |  |  |  | 
N#Cc1c(N)nc(N)nc1N[C@@H](c1ccccc1)c1nc2cccc(Cl)c2c(=O)n1-c1cn[nH]c1 [Compound 106, (S)-2,4-diamino-6-(((5-chloro-4-oxo-3-(1H-pyrazol-4-yl)-3,4-dihydroquinazolin-2-yl)(phenyl)methyl)amino)pyrimidine-5-carbonitrile] | 2 nM | 4 nM | 210 nM |  |  |  | 
Nc1nc(N)c(Cl)c(N[C@@H](c2ccccc2)c2nc3cccc(Cl)c3c(=O)n2-c2cn[nH]c2)n1 [Compound 107, (S)-5-chloro-2-(((2,6-diamino-5-chloropyrimidin-4-yl)amino)(phenyl)methyl)-3-(1H-pyrazol-4-yl)quinazolin-4(3h)-one] | 11 nM | 49 nM | 2400 nM |  |  |  | 
Cc1nc(N)nc(N[C@@H](c2ccccc2)c2nc3cccc(Cl)c3c(=O)n2-c2cn[nH]c2)c1C#N [Compound 108, (S)-2-amino-4-(((5-chloro-4-oxo-3-(1H-pyrazol-4-yl)-3,4-dihydroquinazolin-2-yl)(phenyl)methyl)amino)-6-methylpyrimidine-5-carbonitrile] | 1 nM | 5 nM | 150 nM |  |  |  | 
Nc1nc(N)c(Cl)c(N[C@@H](c2ccccc2)c2nc3cccc(Cl)c3c(=O)n2-c2cc[nH]n2)n1 [Compound 109, (S)-5-chloro-2-(((2,6-diamino-5-chloropyrimidin-4-yl)amino)(phenyl)methyl)-3-(1H-pyrazol-3-yl)quinazolin-4(3h)-one] | 9 nM | 25 nM | 4900 nM |  |  |  | 
Cc1nc(N)nc(N[C@@H](c2ccccc2)c2nc3cccc(Cl)c3c(=O)n2-c2cc[nH]n2)c1C#N [Compound 110, (S)-2-amino-4-(((5-chloro-4-oxo-3-(1H-pyrazol-3-yl)-3,4-dihydroquinazolin-2-yl)(phenyl)methyl)amino)-6-methylpyrimidine-5-carbonitrile] | 1 nM | 4 nM | 410 nM |  |  |  | 
CC[C@H](Nc1nc(N)nc(N)c1C#N)c1nc2ccc(F)cc2c(=O)n1-c1cc[nH]n1 [Compound 112, (S)-2,4-diamino-6-((1-(6-fluoro-4-oxo-3-(1H-pyrazol-3-yl)-3,4-dihydroquinazolin-2-yl)propyl)amino)pyrimidine-5-carbonitrile] | 4 nM | 17 nM | 2200 nM |  |  |  | 
N#Cc1c(N)nc(N)nc1N[C@H](c1nc2ccc(F)cc2c(=O)n1-c1cc[nH]n1)C1CC1 [Compound 113, (S)-2,4-diamino-6-((cyclopropyl(6-fluoro-4-oxo-3-(1H-pyrazol-3-yl)-3,4-dihydroquinazolin-2-yl)methyl)amino)pyrimidine-5-carbonitrile] | 1 nM | 2 nM | 980 nM |  |  |  | 
Nc1nc(N)c(Cl)c(N[C@H](c2nc3ccc(F)cc3c(=O)n2-c2cc[nH]n2)C2CC2)n1 [Compound 114, (S)-2-(cyclopropyl((2,6-diamino-5-chloropyrimidin-4-yl)amino)methyl)-6-fluoro-3-(1H-pyrazol-3-yl)quinazolin-4(3h)-one] | 23 nM | 110 nM |  | > 10000 nM |  |  | 
C[C@H](Nc1nc(N)nc(N)c1C#N)c1nc2ccc(F)cc2c(=O)n1-c1cc[nH]n1 [Compound 115, (S)-2,4-diamino-6-((1-(6-fluoro-4-oxo-3-(1H-pyrazol-3-yl)-3,4-dihydroquinazolin-2-yl)ethyl)amino)pyrimidine-5-carbonitrile] | 1 nM | 2 nM | 560 nM |  |  |  | 
CC[C@H](Nc1nc(N)nc(N)c1Cl)c1nc2ccc(F)cc2c(=O)n1-c1cc[nH]n1 [Compound 116, (S)-2-(1-((2,6-diamino-5-chloropyrimidin-4-yl)amino)propyl)-6-fluoro-3-(1H-pyrazol-3-yl)quinazolin-4(3h)-one] | 44 nM | 210 nM |  | > 10000 nM |  |  | 
C[C@H](NC(=O)c1c(N)nn2cccnc12)c1nc2cccc(Cl)c2c(=O)n1-c1cc[nH]n1 [Compound 117, (S)-2-amino-N-(1-(5-chloro-4-oxo-3-(1H-pyrazol-3-yl)-3,4-dihydroquinazolin-2-yl)ethyl)pyrazolo[1,5-a]pyrimidine-3-carboxamide] | 110 nM | 37 nM | 160 nM |  |  |  | 
CC[C@H](NC(=O)c1nccnc1N)c1nc2c(Cl)ccc(Cl)c2c(=O)n1-c1cc[nH]n1 [Compound 118, (S)-3-amino-N-(1-(5,8-dichloro-4-oxo-3-(1H-pyrazol-3-yl)-3,4-dihydroquinazolin-2-yl)propyl)pyrazine-2-carboxamide] | 260 nM | 510 nM |  | > 10000 nM |  |  | 
CC[C@H](NC(=O)c1cnn2cccnc12)c1nc2c(Cl)ccc(Cl)c2c(=O)n1-c1cn[nH]c1 [Compound 119, (S)—N-(1-(5,8-dichloro-4-oxo-3-(1H-pyrazol-4-yl)-3,4-dihydroquinazolin-2-yl)propyl)pyrazolo[1,5-a]pyrimidine-3-carboxamide] | 170 nM | 360 nM | 7200 nM |  |  |  | 
CC[C@H](NC(=O)c1cnn2cccnc12)c1nc2c(Cl)ccc(Cl)c2c(=O)n1-c1cc[nH]n1 [Compound 120, (S)—N-(1-(5,8-dichloro-4-oxo-3-(1H-pyrazol-3-yl)-3,4-dihydroquinazolin-2-yl)propyl)pyrazolo[1,5-a]pyrimidine-3-carboxamide] | 720 nM | 530 nM |  | > 10000 nM |  |  | 
C[C@H](NC(=O)c1nccnc1N)c1nc2cccc(Cl)c2c(=O)n1-c1cc[nH]n1 [Compound 121, (S)-3-amino-N-(1-(5-chloro-4-oxo-3-(1H-pyrazol-3-yl)-3,4-dihydroquinazolin-2-yl)ethyl)pyrazine-2-carboxamide] | 20 nM | 79 nM | 890 nM |  |  |  | 
CC[C@H](NC(=O)c1nccnc1N)c1nc2c(Cl)ccc(Cl)c2c(=O)n1-c1cn[nH]c1 [Compound 122, (S)-3-amino-N-(1-(5,8-dichloro-4-oxo-3-(1H-pyrazol-4-yl)-3,4-dihydroquinazolin-2-yl)propyl)pyrazine-2-carboxamide] | 200 nM | 640 nM |  | > 10000 nM |  |  | 
CCC[C@H](Nc1nc(N)nc(N)c1Cl)c1nc2cccc(Cl)c2c(=O)n1-c1cc[nH]n1 [Compound 124, (S)-5-chloro-2-(1-((2,6-diamino-5-chloropyrimidin-4-yl)amino)butyl)-3-(1H-pyrazol-3-yl)quinazolin-4(3h)-one] | 12 nM | 14 nM | 6700 nM |  |  |  | 
C[C@H](Nc1nc(N)nc(N)c1Cl)c1nc2cccc(C(F)F)c2c(=O)n1-c1cc[nH]n1 [Compound 126, (S)-2-(1-((2,6-diamino-5-chloropyrimidin-4-yl)amino)ethyl)-5-(difluoromethyl)-3-(1H-pyrazol-3-yl)quinazolin-4(3H)-one] | 3 nM | 5 nM | 2800 nM |  |  |  | 
N#Cc1c(N)nc(N)nc1N[C@H](c1nc2cccc(Cl)c2c(=O)n1-c1cc[nH]n1)C1CCC1 [Compound 128, (S)-2,4-diamino-6-(((5-chloro-4-oxo-3-(1H-pyrazol-3-yl)-3,4-dihydroquinazolin-2-yl)(cyclobutyl)methyl)amino)pyrimidine-5-carbonitrile] |  |  |  |  | 2 nM | 2 nM | 2000 nM
Nc1nc(N)c(Cl)c(N[C@H](c2nc3c(Cl)cc(F)cc3c(=O)n2-c2cc[nH]n2)C2CCC2)n1 [Compound 129, (S)-8-chloro-2-(cyclobutyl((2,6-diamino-5-chloropyrimidin-4-yl)amino)methyl)-6-fluoro-3-(1H-pyrazol-3-yl)quinazolin-4(3H)-one] |  |  |  |  | 86 nM | 270 nM | > 10000 nM
N#Cc1c(N)nc(N)nc1N[C@H](c1nc2c(Cl)cc(F)cc2c(=O)n1-c1cc[nH]n1)C1CCC1 [Compound 130, (S)-2,4-diamino-6-(((8-chloro-6-fluoro-4-oxo-3-(1H-pyrazol-3-yl)-3,4-dihydroquinazolin-2-yl)(cyclobutyl)methyl)amino)pyrimidine-5-carbonitrile] |  |  |  |  | 4 nM | 4 nM | 7800 nM
N#Cc1c(N)nc(N)nc1N[C@H](c1nc2cccc(C(F)F)c2c(=O)n1-c1cc[nH]n1)C1CCC1 [Compound 131, (S)-2,4-diamino-6-((cyclobutyl(5-(difluoromethyl)-4-oxo-3-(1H-pyrazol-3-yl)-3,4-dihydroquinazolin-2-yl)methyl)amino)pyrimidine-5-carbonitrile] |  |  |  |  | 4 nM | 2 nM | 2000 nM
Nc1nc(N)c(Cl)c(N[C@H](c2nc3cccc(C(F)F)c3c(=O)n2-c2cc[nH]n2)C2CCC2)n1 [Compound 132, (S)-2-(cyclobutyl((2,6-diamino-5-chloropyrimidin-4-yl)amino)methyl)-5-(difluoromethyl)-3-(1H-pyrazol-3-yl)quinazolin-4(3H)-one] |  |  |  |  | 42 nM | 75 nM | > 10000 nM
